Measured values taken from patent publication US12509452B2, “Substituted-isoxazoline-containing aromatic compound, preparation method therefor, herbicidal composition and use thereof” (QINGDAO KINGAGROOT CHEMICAL COMPOUND CO., LTD., priority 2019, dated 2025).

Legend:
Test in all cases: weeding effect in post-emergence stage
Assay type in all cases: in vivo
Conditions in all cases: dose 15 g a.i./ha
Conyza japonica = system: Conyza japonica
Outline: (§1)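 Read-out is fresh weight growth control rate, binned into levels 0-5 (Level 5 above 85%, Level 0 below 5%), recorded 3 weeks after spraying and averaged over three repeats. Plants were treated at the 2-3 leaf stage with 7.5-500 g a.i./ha plus methyl oleate synergist.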

Beckmannia syzigachne = system: Beckmannia syzigachne
Outline: as §1

Alopecurus japonicus = system: Alopecurus japonicus
Outline: as §1

Rorippa indica = system: Rorippa indica
Outline: as §1

Row | SMILES | weeding effect in post-emergence stage, Conyza japonica (activity level) (Conyza japonica) | weeding effect in post-emergence stage, Beckmannia syzigachne (activity level) (Beckmannia syzigachne) | weeding effect in post-emergence stage, Alopecurus japonicus (activity level) (Alopecurus japonicus) | weeding effect in post-emergence stage, Rorippa indica (activity level) (Rorippa indica)
1 | CCOC(=O)[C@]1(CC)CC(c2cc(-n3c(=O)cc(C(F)(F)F)n(C)c3=S)c(F)cc2Cl)=NO1 [229(S)] | 5 (Level 5: growth control rate is above 85%) | 5 (Level 5: growth control rate is above 85%) | 5 (Level 5: growth control rate is above 85%) | 5 (Level 5: growth control rate is above 85%)
2 | CCOC(=O)C1(C)CC(c2cc(-n3c(=O)cc(C(F)(F)F)n(C)c3=O)c(F)cc2Cl)=NO1 (stereo not drawn) [Compound 1-9] | 5 (Level 5: growth control rate is above 85%) | 5 (Level 5: growth control rate is above 85%) | 5 (Level 5: growth control rate is above 85%) | 5 (Level 5: growth control rate is above 85%)
3 | CCOC(=O)CCC1(C)CC(c2cc(-n3c(=O)cc(C(F)(F)F)n(C)c3=O)c(F)cc2Cl)=NO1 (stereo not drawn) [Compound 1-37] | 5 (Level 5: growth control rate is above 85%) | 5 (Level 5: growth control rate is above 85%) | 5 (Level 5: growth control rate is above 85%) | 5 (Level 5: growth control rate is above 85%)
4 | CCOC(=O)CCCC1(C)CC(c2cc(-n3c(=O)cc(C(F)(F)F)n(C)c3=O)c(F)cc2Cl)=NO1 (stereo not drawn) [Compound 1-39] | 5 (Level 5: growth control rate is above 85%) | 5 (Level 5: growth control rate is above 85%) | 5 (Level 5: growth control rate is above 85%) | 5 (Level 5: growth control rate is above 85%)
5 | COC(=O)C1(C)CC(c2cc(-n3c(=O)n(C)c(=S)n(C)c3=O)c(F)cc2Cl)=NO1 (stereo not drawn) [Compound 1-60] | 5 (Level 5: growth control rate is above 85%) | 5 (Level 5: growth control rate is above 85%) | 5 (Level 5: growth control rate is above 85%) | 5 (Level 5: growth control rate is above 85%)
6 | CCOC(=O)C1(C)CC(c2cc(-n3c(=O)n(C)c(=S)n(C)c3=O)c(Cl)cc2Cl)=NO1 (stereo not drawn) [Compound 1-61] | 5 (Level 5: growth control rate is above 85%) | 5 (Level 5: growth control rate is above 85%) | 5 (Level 5: growth control rate is above 85%) | 5 (Level 5: growth control rate is above 85%)
7 | CCOC(=O)[C@]1(C)CC(c2cc(-n3c(=O)n(C)c(=S)n(C)c3=O)c(F)cc2Cl)=NO1 [Compound 1-62] | 5 (Level 5: growth control rate is above 85%) | 5 (Level 5: growth control rate is above 85%) | 5 (Level 5: growth control rate is above 85%) | 5 (Level 5: growth control rate is above 85%)
8 | CCOC(=O)C1(C)CC(c2cc(-n3c(=O)n(CC)c(=S)n(CC)c3=O)c(F)cc2Cl)=NO1 (stereo not drawn) [Compound 1-64] | 5 (Level 5: growth control rate is above 85%) | 5 (Level 5: growth control rate is above 85%) | 5 (Level 5: growth control rate is above 85%) | 5 (Level 5: growth control rate is above 85%)
9 | CCOC(=O)C1(C)CC(c2cc(-n3c(=O)n(C(C)C)c(=S)n(C(C)C)c3=O)c(F)cc2Cl)=NO1 (stereo not drawn) [Compound 1-65] | 5 (Level 5: growth control rate is above 85%) | 5 (Level 5: growth control rate is above 85%) | 5 (Level 5: growth control rate is above 85%) | 5 (Level 5: growth control rate is above 85%)
10 | CCOC(=O)C1(C)CC(c2cc(-n3c(=O)n(C4CC4)c(=S)n(C4CC4)c3=O)c(F)cc2Cl)=NO1 (stereo not drawn) [Compound 1-66] | 5 (Level 5: growth control rate is above 85%) | 5 (Level 5: growth control rate is above 85%) | 5 (Level 5: growth control rate is above 85%) | 5 (Level 5: growth control rate is above 85%)
11 | CCOC(=O)C1(C)CC(c2cc(-n3c(=O)n(C)c(=S)n(C)c3=O)c(F)cc2C(F)(F)F)=NO1 (stereo not drawn) [Compound 1-67] | 5 (Level 5: growth control rate is above 85%) | 5 (Level 5: growth control rate is above 85%) | 5 (Level 5: growth control rate is above 85%) | 5 (Level 5: growth control rate is above 85%)
12 | CCOC(=O)C1(C)CC(c2cc(-n3c(=O)n(C)c(=S)n(C)c3=O)c(F)cc2C#N)=NO1 (stereo not drawn) [Compound 1-69] | 5 (Level 5: growth control rate is above 85%) | 5 (Level 5: growth control rate is above 85%) | 5 (Level 5: growth control rate is above 85%) | 5 (Level 5: growth control rate is above 85%)
13 | CCCOC(=O)C1(C)CC(c2cc(-n3c(=O)n(C)c(=S)n(C)c3=O)c(F)cc2Cl)=NO1 (stereo not drawn) [Compound 1-70] | 5 (Level 5: growth control rate is above 85%) | 5 (Level 5: growth control rate is above 85%) | 5 (Level 5: growth control rate is above 85%) | 5 (Level 5: growth control rate is above 85%)
14 | CC(C)OC(=O)C1(C)CC(c2cc(-n3c(=O)n(C)c(=S)n(C)c3=O)c(F)cc2Cl)=NO1 (stereo not drawn) [Compound 1-71] | 5 (Level 5: growth control rate is above 85%) | 5 (Level 5: growth control rate is above 85%) | 5 (Level 5: growth control rate is above 85%) | 5 (Level 5: growth control rate is above 85%)
15 | CCCCOC(=O)C1(C)CC(c2cc(-n3c(=O)n(C)c(=S)n(C)c3=O)c(F)cc2Cl)=NO1 (stereo not drawn) [Compound 1-72] | 5 (Level 5: growth control rate is above 85%) | 5 (Level 5: growth control rate is above 85%) | 5 (Level 5: growth control rate is above 85%) | 5 (Level 5: growth control rate is above 85%)
